Reference: patent US20100298141A1, “SUBSTITUTED PYRIDINE N-OXIDE HERBICIDES” (E. I. DU PONT DE NEMOURS AND COMPANY, priority 2007, published 2010)

Legend:
Assay in all cases: Test F preemergence test
bermudagrass = type: in vivo, Cynodon dactylon; settings: scale 0 to 100
Summary of the method: (§1)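 Preemergence application to planted seeds, or postemergence to sugarcane plants; compound in non-phytotoxic solvent mix plus surfactant. Greenhouse, 14-21 days. Visual rating vs. controls.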

Surinam grass = type: in vivo, Brachiaria decumbens; settings: scale 0 to 100; for Plant response rating, Surinam Grass: Preemergence
Summary of the method: as §1

large crabgrass = type: in vivo, Digitaria sanguinalis; settings: scale 0 to 100
Summary of the method: as §1

goosegrass = type: in vivo, Eleusine indica; settings: scale 0 to 100
Summary of the method: as §1

johnsongrass = type: in vivo, Sorghum halepense; settings: scale 0 to 100
Summary of the method: as §1

kochia = type: in vivo, Kochia scoparia; settings: scale 0 to 100
Summary of the method: as §1

common ragweed = type: in vivo, Ambrosia elation; settings: scale 0 to 100
Summary of the method: as §1

mustard = type: in vivo, Brassica nigra; settings: scale 0 to 100
Summary of the method: as §1

guineagrass = type: in vivo, Panicum maximum; settings: scale 0 to 100
Summary of the method: as §1

dallisgrass = type: in vivo, Paspalum dilatatum; settings: scale 0 to 100
Summary of the method: as §1

barnyardgrass = type: in vivo, Echinochloa crus-galli
Summary of the method: as §1

prickly sida = type: in vivo, Sida spinosa; settings: scale 0 to 100
Summary of the method: as §1

Italian ryegrass = type: in vivo, Lolium multiflorum; settings: scale 0 to 100; for Plant response rating, Ryegrass, Italian: Preemergence
Summary of the method: as §1

common purslane = type: in vivo, Portulaca oleracea; settings: scale 0 to 100
Summary of the method: as §1

broadleaf signalgrass = type: in vivo, Brachiaria platyphylla; settings: scale 0 to 100
Summary of the method: as §1

common groundsel = type: in vivo, Senecio vulgaris; settings: scale 0 to 100
Summary of the method: as §1

Virginia dayflower = type: in vivo, Commelina virginica; settings: scale 0 to 100
Source text: Seeds of plant species selected from bermudagrass (Cynodon dactylon), Surinam grass (Brachiaria decumbens), large crabgrass (Digitaria sanguinalis), green foxtail (Setaria viridis), goosegrass (Eleusine indica), johnsongrass (Sorghum halepense), kochia (Kochia scoparia), pitted morningglory (Ipomoea lacunosa), purple nutsedge (Cyperus rotundus), common ragweed (Ambrosia elation), mustard (Brassica nigra), guineagrass (Panicum maximum), […] (Paspalum dilatatum), barnyardgrass (Echinochloa crus-galli), southern sandbur (Cenchrus echinatus), common sowthistle (Sonchus oleraceous), prickly […] spinosa), Italian ryegrass (Lolium multiflorum), common purslane (Portulaca oleracea), broadleaf signalgrass (Brachiaria platyphylla), common groundsel (Senecio vulgaris), common chickweed (Stellaria media), Virginia dayflower (Commelina virginica), annual bluegrass (Poa annua), naked crabgrass (Digitaria nuda), […] cochinchinensis), quackgrass (Elytrigia repens), Canada horseweed (Conyza canadensis), field bindweed (Convolvulus arvensis), […] (Bidens bipinnata), common mallow (Malva sylvestris), Russian thistle (Salsola kali), and sugarcane (Saccharum officinarum) were planted and treated preemergence with test chemicals formulated in a non-phytotoxic solvent mixture which included a surfactant. At a different time, sugarcane was treated with postemergence applications of some of the test chemicals formulated in the same manner. Plants were approximately 3- to 4-leaf stage for the postemergence treatments. Treated plants and controls were maintained in a greenhouse for 14 to 21 days, after which time all species were compared to controls and visually evaluated. […] A dash (-) response means no test result.

naked crabgrass = type: in vivo, Digitaria nuda; settings: scale 0 to 100
Summary of the method: as §1

itchgrass = type: in vivo, Rottboellia cochinchinensis; settings: scale 0 to 100
Summary of the method: as §1

quackgrass = type: in vivo, Elytrigia repens; settings: scale 0 to 100
Summary of the method: as §1

## Cc1cc([S+]([O-])Cc2c(C(F)(F)F)nn(C)c2OCC(F)(F)F)[n+]([O-])cc1Cl (stereo not drawn) [Compound 70]
bermudagrass; 16 g ai/ha, preemergence
  Plant response rating, Bermudagrass: 40
bermudagrass; 62 g ai/ha, Preemergence
  Bermudagrass plant response rating: 98
bermudagrass; 125 g ai/ha, preemergence
  Bermudagrass plant response rating: 100
bermudagrass; Preemergence, 31 g ai/ha
  Plant response rating, Bermudagrass: 80
Surinam grass; 125 g ai/ha, preemergence
  Surinam Grass plant response rating: 100
Surinam grass; 62 g ai/ha
  Plant response rating, Surinam Grass: 98
Surinam grass; 31 g ai/ha
  Plant response rating, Surinam Grass: 40
Large crabgrass; 16 g ai/ha, preemergence
  Plant response rating, Crabgrass, Large: 35
Large crabgrass; 62 g ai/ha, Preemergence
  Crabgrass, Large plant response rating: 70
Large crabgrass; 125 g ai/ha, preemergence
  Crabgrass, Large plant response rating: 98
Large crabgrass; Preemergence, 31 g ai/ha
  Plant response rating, Crabgrass, Large: 50
goosegrass; 16 g ai/ha, preemergence
  Plant response rating, Goosegrass: 60
goosegrass; 62 g ai/ha, Preemergence
  Goosegrass plant response rating: 80
goosegrass; 125 g ai/ha, preemergence
  Goosegrass plant response rating: 100
goosegrass; Preemergence, 31 g ai/ha
  Plant response rating, Goosegrass: 80
johnsongrass; 16 g ai/ha, preemergence
  Plant response rating, Johnsongrass: 90
johnsongrass; 62 g ai/ha, Preemergence
  Johnsongrass plant response rating: 100
johnsongrass; 125 g ai/ha, preemergence
  Johnsongrass plant response rating: 100
johnsongrass; Preemergence, 31 g ai/ha
  Plant response rating, Johnsongrass: 90
kochia; 16 g ai/ha, preemergence
  Plant response rating, Kochia: 95
kochia; 62 g ai/ha, Preemergence
  Kochia plant response rating: 100
kochia; 125 g ai/ha, preemergence
  Kochia plant response rating: 100
kochia; Preemergence, 31 g ai/ha
  Plant response rating, Kochia: 95
Common ragweed; 16 g ai/ha, preemergence
  Plant response rating, Ragweed: 60
Common ragweed; Preemergence, 62 g ai/ha
  Plant response rating, Ragweed: 80
Common ragweed; Preemergence, 31 g ai/ha
  Plant response rating, Ragweed: 60
mustard; 16 g ai/ha, preemergence
  Plant response rating, Black Mustard: 90
mustard; 62 g ai/ha, Preemergence
  Black Mustard plant response rating: 100
mustard; 125 g ai/ha, preemergence
  Black Mustard plant response rating: 100
mustard; Preemergence, 31 g ai/ha
  Plant response rating, Black Mustard: 90
guineagrass; 16 g ai/ha, preemergence
  Plant response rating, Guineagrass: 100
guineagrass; 62 g ai/ha, Preemergence
  Guineagrass plant response rating: 100
guineagrass; 125 g ai/ha, preemergence
  Guineagrass plant response rating: 100
guineagrass; Preemergence, 31 g ai/ha
  Plant response rating, Guineagrass: 100
dallisgrass; 62 g ai/ha, Preemergence
  Dallisgrass plant response rating: 75
dallisgrass; 125 g ai/ha, preemergence
  Dallisgrass plant response rating: 98
dallisgrass; Preemergence, 31 g ai/ha
  Plant response rating, Dallisgrass: 25
barnyardgrass; 16 g ai/ha, preemergence, scale 0 to 100 (0 no effect, 100 complete control)
  Plant response rating, Barnyardgrass: 60
barnyardgrass; 62 g ai/ha, Preemergence, scale 0 to 100
  Barnyardgrass plant response rating: 95
barnyardgrass; 125 g ai/ha, preemergence, scale 0 to 100
  Barnyardgrass plant response rating: 100
barnyardgrass; Preemergence, 31 g ai/ha, scale 0 to 100
  Plant response rating, Barnyardgrass: 70
Prickly sida; 16 g ai/ha, preemergence
  Plant response rating, Prickly Sida: 60
Prickly sida; 62 g ai/ha, Preemergence
  Prickly Sida plant response rating: 90
Prickly sida; 125 g ai/ha, preemergence
  Prickly Sida plant response rating: 90
Prickly sida; Preemergence, 31 g ai/ha
  Plant response rating, Prickly Sida: 80
Italian ryegrass; 125 g ai/ha, preemergence
  Ryegrass, Italian plant response rating: 100
Italian ryegrass; 62 g ai/ha
  Plant response rating, Ryegrass, Italian: 100
Italian ryegrass; 31 g ai/ha
  Plant response rating, Ryegrass, Italian: 75
Common purslane; 62 g ai/ha, Preemergence
  Purslane plant response rating: 75
Common purslane; 125 g ai/ha, preemergence
  Purslane plant response rating: 75
Common purslane; Preemergence, 31 g ai/ha
  Plant response rating, Purslane: 35
Broadleaf signalgrass; 125 g ai/ha, preemergence
  Signalgrass plant response rating: 90
Broadleaf signalgrass; Preemergence, 62 g ai/ha
  Plant response rating, Signalgrass: 90
Common groundsel; 62 g ai/ha, Preemergence
  Groundsel plant response rating: 98
Common groundsel; 125 g ai/ha, preemergence
  Groundsel plant response rating: 100
Common groundsel; Preemergence, 31 g ai/ha
  Plant response rating, Groundsel: 98
Virginia dayflower; 16 g ai/ha, preemergence
  Plant response rating, Dayflower: 90
Virginia dayflower; 62 g ai/ha, Preemergence
  Dayflower plant response rating: 100
Virginia dayflower; 125 g ai/ha, preemergence
  Dayflower plant response rating: 100
Virginia dayflower; Preemergence, 31 g ai/ha
  Plant response rating, Dayflower: 100
Naked crabgrass; 16 g ai/ha, preemergence
  Plant response rating, Crabgrass, Naked: 90
Naked crabgrass; 62 g ai/ha, Preemergence
  Crabgrass, Naked plant response rating: 100
Naked crabgrass; 125 g ai/ha, preemergence
  Crabgrass, Naked plant response rating: 100
Naked crabgrass; Preemergence, 31 g ai/ha
  Plant response rating, Crabgrass, Naked: 90
itchgrass; 16 g ai/ha, preemergence
  Plant response rating, Itchgrass: 80
itchgrass; 62 g ai/ha, Preemergence
  Itchgrass plant response rating: 80
itchgrass; 125 g ai/ha, preemergence
  Itchgrass plant response rating: 100
itchgrass; Preemergence, 31 g ai/ha
  Plant response rating, Itchgrass: 80
quackgrass; 16 g ai/ha, preemergence
  Plant response rating, Quackgrass: 75
quackgrass; 62 g ai/ha, Preemergence
  Quackgrass plant response rating: 95
quackgrass; 125 g ai/ha, preemergence
  Quackgrass plant response rating: 100
quackgrass; Preemergence, 31 g ai/ha
  Plant response rating, Quackgrass: 75
